Data on ten compounds can be found in PMC8270315, “Combination of Heme Oxygenase-1 Inhibition and Sigma Receptor Modulation for Anticancer Activity” (Molecules, 2021).

Experiment [1] concerns U87MG cells. Kind of experiment: MTT cell viability assay, U87MG cells. It is filed as cell-based, human. Particulars: for effect on U87MG cell viability (in words): U87MG, 1, 10 and 50 μM; for effect of co-administration on U87MG cell viability (in words): 10 μM σR ligand plus 10 μM HO-1 inhibitor, compared with σR ligand alone.
Experimental: In particular, we used the human glioblastoma cell line U87MG (ATCCC number #HTB-14) and the prostate cancer cell line DU145 (ATCC HTB-81). These cell lines were obtained from the American Type Culture Collection (ATCC, Rockville, Md., USA). Cells were cultured in Dulbecco’s modified Eagle’s medium (DMEM) supplemented with 10% of heat-inactivated fetal bovine serum (FBS), 100 U/mL penicillin and 100-μg/mL streptomycin (Sigma-Aldrich, Steinheim, Germany) and incubated at 37 °C in a humidified atmosphere with 5% CO2.
The cytotoxicity of HO-1 inhibitors and σR ligands previous synthesized compounds as well as novel HO-1/σR hybrids compounds were evaluated. The effect on cell viability was assessed by performing MTT assay. Cells were seeded into 96-well plates at a density of 7.0 × 10^3 cells/well in 100 µL of culture medium. The day after, cells were treated with each molecule at three different concentrations (1 µM, 10 µM and 50 µM) for 72 h. Following treatments, 0.5 mg/mL of 3-[4,5-dimethylthiazol-2-yl]-2,5-diphenyltetrazolium bromide (MTT) (Sigma-Aldrich) was added to each well and incubated for 4 h at 37 °C. Finally, dimethyl-sulfoxide (DMSO) was used to dissolve formazan salts and absorbance was measured at 450 nm in a microplate reader (Biotek Synergy-HT). Six replicate wells were used for each group.
In experiment [2] the target is T1, HO-1 (Rattus norvegicus, UniProt P06762).
T1 construct: selected in order to use the most native (i.e., closest to in vivo) forms of HO-1; from tissue; host or cells: spleen microsomal fraction of male Sprague-Dawley rats
T1 sequence (P06762 1-289): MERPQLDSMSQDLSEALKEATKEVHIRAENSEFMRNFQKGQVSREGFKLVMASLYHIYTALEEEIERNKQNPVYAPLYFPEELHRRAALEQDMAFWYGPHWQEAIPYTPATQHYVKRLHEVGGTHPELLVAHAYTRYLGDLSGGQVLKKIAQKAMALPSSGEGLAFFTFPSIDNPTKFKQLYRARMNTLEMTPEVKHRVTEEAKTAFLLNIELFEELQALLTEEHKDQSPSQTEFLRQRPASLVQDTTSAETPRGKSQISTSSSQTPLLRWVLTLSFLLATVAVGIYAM
Nature of the experiment: HO-1 inhibition, bilirubin formation in rat spleen microsomal fraction. Particulars: Table S1. It is filed as biochemical. How it is done:
The new HO-1/σRs hybrids 1–4 were tested to evaluate their HO-1 inhibitory activity. The enzyme was obtained from the microsomal fractions of rat spleen. Determination of HO-1 activity was performed by measuring the bilirubin formation using the difference in absorbance at 464–530 nm, as reported in the experimental section. Compounds LS/0, LS4/28, LS6/42 and azalanstat were used as reference substances. We focused our attention on HO-1, since only this inducible isoform is involved in tumorigenesis and in tumor progression.
Microsomal fractions obtained from rat spleen were used as sources of HO-1. Microsomal preparations obtained by differential centrifugation, were selected in order to use the most native (i.e., closest to in vivo) forms of HO-1. The experiments reported in the present paper complied with current Italian law and met the guidelines of the Institutional Animal Care and Use Committee of Ministry of Health (Directorate General for Animal Health and Veterinary Medicines) (Italy). The experiments were performed in male Sprague–Dawley albino rats (150 g body weight and age 45 d). They had free access to water and were kept at room temperature with a natural photo-period (12 h light, 12 h dark cycle). For measuring HO-1 activities, each rat was sacrificed and their spleens were excised and weighed. A homogenate (15%, w/v) of spleens pooled from four rats was prepared in ice-cold HO-homogenizing buffer (50 mM Tris buffer, pH 7.4, containing 0.25 M sucrose) using a Potter–Elvehjem homogenizing system with a Teflon pestle. The microsomal fraction of rat spleen homogenate was obtained by centrifugation at 10,000× g for 20 min at 4 °C, followed by centrifugation of the supernatant at 100,000× g for 60 min at 4 °C. The 100,000g pellet (microsomes) was resuspended in an 100 mM potassium phosphate buffer, pH 7.8, containing 2 mM MgCl2 with a Potter–Elvehjem homogenizing system. The rat spleen microsomal fractions were divided into equal aliquots, placed into microcentrifuge tubes, and stored at −80 °C for up to 2 months.
Biliverdin reductase was obtained from liver cytosol. Rat liver was perfused through the hepatic portal vein with cold 0.9% NaCl, then it was cut and flushed with 2 × 20 mL of ice-cold PBS to remove all of the blood. Liver tissue was homogenized in 3 volumes of solution containing 1.15% KCl w/v and Tris buffer 20 mM, pH 7.8 on ice. Homogenates were centrifuged at 10,000× g, for 20 min at 4 °C. Supernatant was decanted and centrifuged at 100,000× g for 1 h at 4 °C to sediment the microsomes. The 100,000× g supernatant was saved and then stored in small amounts at −80 °C after its protein concentration was measured.
The HO-1 activities were determined by measuring the bilirubin formation using the difference in absorbance at 464–530 nm. Reaction mixtures (500 µL) contained 20 mM Tris–HCl, pH 7.4, (1 mg/mL) microsomal extract, 0.5–2 mg/mL biliverdin reductase, 1 mM NADPH, 2 mM glucose 6-phosphate (G6P), 1 U G6P dehydrogenase, 25 μM hemin, and 10 µL of DMSO (or the same volume of DMSO solution of test compounds to a final concentration of 100, 10, and 1 µM). Samples were incubated for 60 min at 37 °C in a circulating water bath in the dark. Reactions were stopped by adding the same volume of chloroform. After recovering the chloroform phase, the amount of bilirubin formed was measured with a double-beam spectrophotometer as OD464–530 nm (extinction coefficient, 40 mM/cm^−1 for bilirubin). […]

Experiment [3] addresses T2, σ1R (Cavia porcellus, UniProt Q60492).
T2 construct: The thawed membrane preparation of guinea pig brain cortex was incubated with increasing concentrations of test compounds; from tissue; host or cells: brain cortex membranes of male Dunkin-Hartley guinea pigs (animals from ENVIGO RMS S.R.L.)
Kind of experiment: σ1R radioligand binding assay, [3H](+)-pentazocine, guinea pig brain cortex membranes. Particulars: for inhibition at 10 µM: read-out: σ1R % of inhibition at 10 μM.
Experimental: (§1) All new synthesized HO-1/σ hybrids 1–4 were evaluated for affinity at both the σ1R and the σ2R, through radioligand binding assay.
(§2) Brain and liver homogenates for σ1R and σ2R binding assays were prepared from male Dunkin–Hartley guinea pigs and Sprague–Dawley rats, respectively, (ENVIGO RMS S.R.L., Udine, Italy) as previously reported [54]. In vitro σ1R ligand binding assays were carried out in Tris buffer (50 mM, pH 7.4) for 150 min at 37 °C. […] Bound and free radioligand were separated by fast filtration under reduced pressure using a Millipore filter apparatus through Whatman GF 6 glass fiber filters, which were presoaked in a 0.5% poly(ethyleneimine) water solution. Each filter paper was rinsed three times with ice-cold Tris buffer (50 mM, pH 7.4), dried at rt, and incubated overnight with scintillation fluid into pony vials. The bound radioactivity has been determined using a liquid scintillation counter (Beckman LS 6500) [55]. In vitro σ2R ligand binding assays were carried out in Tris buffer (50 mM, pH 8.0) for 120 min at rt. […] Bound and free radioligand were separated by fast filtration under reduced pressure using a Millipore filter apparatus through Whatman GF 6 glass fiber filters, which were presoaked in a 0.5% poly(ethyleneimine) water solution. Each filter paper was rinsed three times with ice-cold Tris buffer (10 mM, pH 8), dried at rt, and incubated overnight with scintillation fluid into pony vials. The bound radioactivity was determined using a liquid scintillation counter (Beckman LS 6500) [56]. The Ki-values were calculated with the program GraphPad Prism® 7.0 (GraphPad Software, San Diego, CA, USA). The Ki-values are given as mean value ± SD from at least two independent experiments performed in duplicate.

For experiment [4], the target named is T3, σ2R (Rattus norvegicus, UniProt Q5U3Y7).
T3 construct: from tissue; host or cells: liver membranes of Sprague-Dawley rats (animals from ENVIGO RMS S.R.L.)
T3 sequence (Q5U3Y7 1-176): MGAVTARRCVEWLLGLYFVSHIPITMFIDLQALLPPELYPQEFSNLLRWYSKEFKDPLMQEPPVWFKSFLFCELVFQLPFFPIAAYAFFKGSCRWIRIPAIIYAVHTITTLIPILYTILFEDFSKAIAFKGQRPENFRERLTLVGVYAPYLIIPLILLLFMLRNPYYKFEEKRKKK
Nature of the experiment: σ2R radioligand binding assay, [3H]DTG, rat liver membranes.
Experimental: as §1, §2

The subject of experiment [5] is HO-2. Set-up: method as in PMID 29783634, PMID 23867390, PMID 32056044, PMID 32168943, PMID 32222619. The following applies: Figure 1, previously demonstrated; cited from earlier work.
The test system of experiment [6] is DU145 cells. Kind of experiment: MTT cell viability assay, DU145 cells. It is filed as cell-based, human. The following applies: DU145, single compound 10 μM, 72 h. The source says: In some types of human prostate and brain cancers, both HO-1 and σRs are overexpressed, influencing cancer cell proliferation. Consequently, σR ligands and HO-1 inhibitors may have anticancer activity. Literature data highlight the potential antiproliferative activity of various σ1R ligands in highly diffusive glioblastoma and prostate cancer cells, likely by interfering with the progression of cell cycle and decreasing the migration of cancer cells. Likewise, HO-1 inhibition hinders cancer progression, mainly by decreasing CO-mediated angiogenesis and disrupting the antioxidant HO-1 activity. […] Cytotoxicity of all new and previous synthesized compounds were evaluated in vitro via MTT assay. The cell viability of DU145 and U87-MG cells was assessed after 72 h of continuous treatment with all tested compounds, at the concentrations of 1, 10, and 50 μM. […]
The cytotoxicity of HO-1 inhibitors and σR ligands previous synthesized compounds as well as novel HO-1/σR hybrids compounds were evaluated. The effect on cell viability was assessed by performing MTT assay. […] Finally, dimethyl-sulfoxide (DMSO) was used to dissolve formazan salts and absorbance was measured at 450 nm in a microplate reader (Biotek Synergy-HT). […]

The target in experiment [7] is T3, σ2R. Particulars: Table S1; ref [4, 5] of the supplement; cited from earlier work.

The structures appear in SMILES notation. Like-named read-outs stand apart in the source and are kept apart here.

T2 sequence (Q60492 whole entry): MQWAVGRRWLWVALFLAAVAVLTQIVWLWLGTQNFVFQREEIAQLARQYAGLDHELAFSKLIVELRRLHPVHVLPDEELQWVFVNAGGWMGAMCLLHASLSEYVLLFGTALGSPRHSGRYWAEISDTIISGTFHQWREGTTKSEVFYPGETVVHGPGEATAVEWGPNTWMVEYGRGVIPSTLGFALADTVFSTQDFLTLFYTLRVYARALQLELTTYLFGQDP

Regarding `O=C(CCc1ccc(OCCCCn2ccnc2)cc1)N1CCN(Cc2ccccc2)CC1` [Compound 3, 3-(4-(4-(1H-imidazol-1-yl)butoxy)phenyl)-1-(4-benzylpiperazin-1-yl)propan-1-one], in experiment [1] (72 h, MTT), the “effect on U87MG cell viability (in words)” value was “less efficacy than the control at 1 μM”. In experiment [2], this compound displayed an IC50 of 162 ± 1.8 µM. In addition, in experiment [3], the Ki was above 10 µM and the inhibition at 10 µM worked out at 78%. Further, in experiment [4], the inhibitory constant (Ki) was above 10 µM and the inhibition at 10 µM came to 66%.
With `Brc1cccc(OCCCCn2ccnc2)c1` [LS/0], the IC50 in experiment [5] was 2.2 ± 0.2 µM. Also, in experiment [1] (72 h, MTT), the “effect on U87MG cell viability (in words)” value is listed as “significantly reduce cell viability only at 50 μM”.
As to `OC(Cn1ccnc1)c1ccc(CCc2ccc(Br)cc2)cc1` (stereo not shown) [LS6/42], the IC50 in experiment [5] is above 100 µM. Besides, the “reduction of cellular viability” value in experiment [1] (U87MG, single compound 10 μM, 72 h, MTT) is recorded as “about 50%”.
Regarding `O=C(CCCc1ccc(OCCCCn2ccnc2)cc1)N1CCN(Cc2ccccc2)CC1` [Compound 4, 4-(4-(4-(1H-imidazol-1-yl)butoxy)phenyl)-1-(4-benzylpiperazin-1-yl)butan-1-one], the “effect on U87MG cell viability (in words)” value in experiment [1] (72 h, MTT) is “reduced U87MG cell viability at all concentrations, especially at 50 μM”. For the same compound, in experiment [2], half-maximal inhibition (IC50) required 87.7 ± 1.3 µM and the “IC50 HO-1” value is reported as “the most potent compound among the series”. In addition, in experiment [3], the inhibition constant Ki is above 10 µM and the inhibition at 10 µM is 55%. In experiment [4], the affinity corresponds to a Ki of 4.62 µM.
`O=C(CCCN1CCC(O)(c2ccc(Cl)cc2)CC1)c1ccc(F)cc1` [Haloperidol, haloperidol]: the “effect on U87MG cell viability (in words)” value in experiment [1] (72 h, MTT) is “high efficacy in downregulation of cell viability”. Besides, the “reduction of cell viability” value in experiment [6] is “about 50%”.
As for `COc1ccc(CN2CCN(C(=O)CCC3CCCCC3)CC2)cc1` [SI1/13], in experiment [1] (U87MG), the “effect of co-administration on U87MG cell viability (in words)” value is reported as “increased by the addition of all the tested HO-1 inhibitors”. Further, the “effect on U87MG cell viability (in words)” value in experiment [1] (72 h, MTT) is “high efficacy in downregulation of cell viability”. Besides, the inhibition constant (Ki) in experiment [7] was 1.42 µM.
For `O=C(c1ccc(OCCCCn2ccnc2)cc1)N1CCN(Cc2ccccc2)CC1` [Compound 1, (4-(4-(1H-imidazol-1-yl)butoxy)phenyl)(4-benzylpiperazin-1-yl)methanone], in experiment [1] (72 h, MTT), the “effect on U87MG cell viability (in words)” value is “reduced U87MG cell viability at all concentrations, especially at 50 μM”. The compound also gave a half-inhibitory concentration (IC50) in experiment [2] of 230 ± 5.1 µM. In addition, in experiment [3], the inhibitory constant (Ki) was above 10 µM and the inhibition at 10 µM stood at 90%. In experiment [4], the inhibition constant Ki is above 10 µM and the inhibition at 10 µM is 54%.
Regarding `COc1ccc(CN2CCN(C(=O)CCc3ccccc3)CC2)cc1` [RFB/13], the “effect of co-administration on U87MG cell viability (in words)” value in experiment [1] (U87MG) is reported as “significantly reduced for compound RFB/13 only when combined with LS4/28 or LS6/42”. In addition, in experiment [1] (72 h, MTT), the “effect on U87MG cell viability (in words)” value is “significantly reduce cell viability only at 50 μM”.
Regarding `OC(Cn1ccnc1)c1cccc(-c2ccccc2)c1` (stereo not shown) [LS4/28], the IC50 in experiment [5] was above 100 µM. Also, the “effect on U87MG cell viability (in words)” value in experiment [1] (72 h, MTT) was “did not affect U87MG cell viability”.
Take `O=C(Cc1ccc(OCCCCn2ccnc2)cc1)N1CCN(Cc2ccccc2)CC1` [Compound 2, 2-(4-(4-(1H-imidazol-1-yl)butoxy)phenyl)-1-(4-benzylpiperazin-1-yl)ethan-1-one]: in experiment [1] (72 h, MTT), the “effect on U87MG cell viability (in words)” value is recorded as “reduced U87MG cell viability at all concentrations, especially at 50 μM”. In experiment [2], this compound displayed an IC50 of 216 ± 3.6 µM. Moreover, in experiment [3], the inhibition constant Ki is above 10 µM and the inhibition at 10 µM amounted to 73%. In addition, in experiment [4], the Ki was above 10 µM and the inhibition at 10 µM came out at 67%.
